Holding throughout (format): cell-based
Test [1] has as its system Monocytes. In words: Desensitization of monocyte chemotaxis by pre-exposure to elastin peptides. To be noted: for % CONTROL: desensitized vs control; for Monocyte chemotaxis, CONTROL: no pre-exposure; for Monocyte chemotaxis, CONTROL / Monocyte chemotaxis, DESENSITIZED: mean of 15; for Monocyte chemotaxis, DESENSITIZED: pre-exposed to elastin peptides; for effect of pre-exposure to elastin-derived peptide fragments on monocyte chemotactic response: monocytes pre-exposed to elastin-derived peptide fragments, qualitative.

The test system of test [2] is fibroblasts. In words: Fibroblast chemotaxis in multi-blind well apparatus. The following applies: for chemotactic activity of isolated hexapeptides: qualitative; for Fibroblast Migration, Net Cells/HPF ± SEM: N = 15; for chemotactic activity in presence of antibody to elastin: polyclonal antibody to elastin present, FIG. 4. The protocol: (§1) The chemotactic response of fibroblasts to a hexapeptide of the invention was measured using the techniques described in Senior et al, J. Clin. Invest., 70, 614-618 (1982), which is herein incorporated by reference. Although the actual conditions used may vary slightly, the following generally describes the experimental conditions.
(§2) Chemotaxis was determined in a multi-blind well apparatus using a polycarbonate membrane with 8-μm pores on top of a cellulose nitrate membrane having 0.45-μm pores to separate each well into upper and lower compartments. The lower compartment was filled with 240 μl of solution to be assayed (or control medium) and then covered with the membranes. In the upper compartment was placed 350 μl of cell suspension containing 1.2×10^5 cells/ml.
(§3) After both compartments of the wells were filled, the chemotaxis apparatus was placed in a humidified incubator at 37° C. in an atmosphere of 5% CO2 -95% air for several hours. The apparatus was then disassembled, and each membrane pair was removed and stained with hematoxylin. Cell migration was determined under high dry magnification (×400) by counting the cells that had moved to the interface between the two membranes and those on the lower membrane. Several high power fields (H.P.F.) were counted for each membrane. Multiple determinations of each experiment were conducted, and the results pooled. Cell migration is expressed as the net number of cells per H.P.F.; i.e., the number of cells per H.P.F. minus the number of cells per H.P.F. that migrated in response to control medium.

In test [3] the test system is young fibroblasts (not yet synthesizing elastin). In words: Chemotaxis of young (immature) fibroblasts before and after induced differentiation. To be noted: FIG. 2. The protocol: as §1, §2
as §3, with “The apparatus was then disassembled, and each membrane pair was removed and stained with hematoxylin.” left out, “Multiple determinations of each experiment were conducted, and the results pooled.” left out

Where [4] appears, read: FIG. 1, dose response of fibroblasts.
[5] abbreviates: chemoattractant at concentration for maximum chemotaxis.

No end group written: not given here.

For the molecule `CSCC[C@H](NC=O)C(=O)N[C@@H](CC(C)C)C(=O)N[C@@H](Cc1ccccc1)C(=O)O` [FMLP, formylmethionylleucylphenylalanine, reference compound], in test [1] (chemoattractant 10^-8 M), the “% CONTROL” value is listed as 77%; the “Monocyte chemotaxis, CONTROL” value was 100 Cells per high power field; the “Monocyte chemotaxis, DESENSITIZED” value is 77 Cells per high power field. Also, in test [1] (chemoattractant 10^-9 M), the “% CONTROL” value worked out at 100%; the “Monocyte chemotaxis, CONTROL” value was 45 Cells per high power field; the “Monocyte chemotaxis, DESENSITIZED” value is reported as 45 Cells per high power field. The “effect of pre-exposure to elastin-derived peptide fragments on monocyte chemotactic response” value (“effect of pre-exposure” below) in test [1] is listed as “pre-exposure has no effect on response”.
As to H-APGVGV-OH [H--APGVGV--OH], the “chemotactic activity of isolated hexapeptides” value in test [2] is “chemotactic activity is also seen”.
Regarding H-GVAPGV-OH [H--GVAPGV--OH], the “chemotactic activity of isolated hexapeptides” value in test [2] is reported as “chemotactic activity is also seen”.
The same measure, in the same setting: under H-GVGVAP-OH [H--GVGVAP--OH] stands “chemotactic activity is also seen”.
The same measure, in the same setting: in the case of H-PGVGVA-OH [H--PGVGVA--OH] it was “chemotactic activity is also seen”; in that of H-VAPGVG-OH [H--VAPGVG--OH], “chemotactic activity is also seen”.
As to “VGVAPG [VGVAPG, VAL--GLY--VAL--ALA--PRO--GLY]”, the “concentration of greatest chemotactic activity” value in test [2] (setting [4]) was 10^-9 M. Moreover, the “concentrations at which chemotactic response was seen” value in test [2] (setting [4]) is “higher than 10^-11 M”. In test [2] (Table 1 gradient analysis), the “nature of fibroblast response (chemotaxis vs random movement)” value was “chemotaxis and not simply stimulation of random movement”. The “Fibroblast Migration, Net Cells/HPF ± SEM” value is reported as -2 ± 0.5 Net Cells/HPF in test [2] (VGVAPG lower compartment 0, upper compartment 10^-8 M); 0 ± 0.7 Net Cells/HPF in test [2] (VGVAPG lower compartment 0, upper compartment 10^-9 M); 1 ± 0.6 Net Cells/HPF in test [2] (VGVAPG lower compartment 0, upper compartment 10^-10 M); 27 ± 1.7 Net Cells/HPF in test [2] (VGVAPG lower compartment 10^-8 M, upper compartment 0); 1 ± 0.7 Net Cells/HPF in test [2] (VGVAPG lower compartment 10^-8 M, upper compartment 10^-8 M); 3 ± 0.6 Net Cells/HPF in test [2] (VGVAPG lower compartment 10^-8 M, upper compartment 10^-9 M). The “Fibroblast Migration, Net Cells/HPF ± SEM” value in test [2] (VGVAPG lower compartment 10^-8 M, upper compartment 10^-10 M) is reported as 13 ± 1.8 Net Cells/HPF; in test [2] (VGVAPG lower compartment 10^-9 M, upper compartment 0), 15 ± 1.7 Net Cells/HPF; in test [2] (VGVAPG lower compartment 10^-9 M, upper compartment 10^-8 M) it was 0 ± 0.6 Net Cells/HPF; in test [2] (VGVAPG lower compartment 10^-9 M, upper compartment 10^-9 M), 0 ± 0.4 Net Cells/HPF; in test [2] (VGVAPG lower compartment 10^-9 M, upper compartment 10^-10 M), 7 ± 1.3 Net Cells/HPF; in test [2] (VGVAPG lower compartment 10^-10 M, upper compartment 0), 4 ± 1.0 Net Cells/HPF. Further, the “Fibroblast Migration, Net Cells/HPF ± SEM” value is listed as 1 ± 1.0 Net Cells/HPF in test [2] (VGVAPG lower compartment 10^-10 M, upper compartment 10^-8 M); -3 ± 0.4 Net Cells/HPF in test [2] (VGVAPG lower compartment 10^-10 M, upper compartment 10^-9 M); 2 ± 0.7 Net Cells/HPF in test [2] (VGVAPG lower compartment 10^-10 M, upper compartment 10^-10 M). In test [2], the “chemotactic activity of isolated hexapeptides” value is on record as “most chemotactic of the isolated hexapeptides”. Also, the “chemotactic activity in presence of antibody to elastin” value in test [2] is reported as “blocks the chemotactic activity”. The “migration of young fibroblasts” value in test [3] is recorded as “do not migrate”. Besides, the “% CONTROL” value in test [1] (chemoattractant 10^-8 M) and in test [1] (chemoattractant 10^-9 M) was 0% each time. For the same molecule, the results for the “Monocyte chemotaxis, CONTROL” value in test [1] (chemoattractant 10^-8 M) and in test [1] (chemoattractant 10^-9 M) were 70 Cells per high power field and 42 Cells per high power field, respectively. For the same molecule, the “Monocyte chemotaxis, DESENSITIZED” value in test [1] (chemoattractant 10^-8 M) is on record as -4 Cells per high power field; in test [1] (chemoattractant 10^-9 M) it was -2 Cells per high power field. Moreover, in test [1], the “effect of pre-exposure” value is given as “no longer show chemotaxis”.
With platelet-derived growth factor [PDGF], the “Fibroblast Migration, Positive Control” value in test [2] (PDGF, 10^-9 M) was found to be 31 Cells/HPF. The “chemotactic activity in presence of antibody to elastin” value in test [2] is given as “has no effect on the chemotactic activity”. Besides, the “migration of young fibroblasts” value in test [3] is “have the capacity to migrate”.

B1: C5A: activity derived from the fifth component of complement (C5a) (protein, UniProt P01031 678-751, looked up)
C5a anaphylatoxin: TLQKKIEEIAAKYKHSVVKKCCYDGACVNNDETCEQRAARISLGPRCIKAFTECCVVASQLRANISHKDMQLGR
modifications: C5a anaphylatoxin
B1: in test [1] (setting [5]), the “% CONTROL” value worked out at 100%; the “Monocyte chemotaxis, CONTROL” value was 102 Cells per high power field; the “Monocyte chemotaxis, DESENSITIZED” value is given as 102 Cells per high power field. For the same molecule, in test [1], the “effect of pre-exposure” value is recorded as “pre-exposure has no effect on response”.

The record behind these values is patent US4605413A, “Stimulation of chemotaxis by chemotactic peptides” (The University of Alabama at Birmingham, priority 1983, dated 1986).
